Test results taken from publication PMC4547393, “Resin-acid derivatives as potent electrostatic openers of voltage-gated K channels and suppressors of neuronal excitability” (Scientific Reports, 2015).

Assays:
Format in all cases: cell-based
[1] = biological target: T1, 3R Shaker K channel (Drosophila melanogaster, UniProt P08510, DEL6-46/M356R/A359R); assay: two-electrode voltage clamp in Xenopus oocytes, G(V) shift at […]
T1 construct: gene Sh

[2] = biological target: T2, 3R Shaker K channel (Drosophila melanogaster, UniProt P08510, A359R/DEL6-46/M356R); assay: two-electrode voltage clamp in Xenopus oocytes, G(V) shift; also patch clamp in CHO-K1 cells
T2 construct: gene Sh

[3] = biological target: T3, Shaker K channel (WT) (Drosophila melanogaster, UniProt P08510, DEL6-46); assay: two-electrode voltage clamp in Xenopus oocytes, G(V) shift at […]
T3 construct: gene Sh

[4] = biological target: T3, Shaker K channel (WT); assay: two-electrode voltage clamp in Xenopus oocytes, G(V) shift and pH dependence at […]
[5] = biological target: T2, 3R Shaker K channel; assay: two-electrode voltage clamp in Xenopus oocytes, G(V) shift

T3 sequence (P08510 with tags, fused parts or gaps DEL6-46): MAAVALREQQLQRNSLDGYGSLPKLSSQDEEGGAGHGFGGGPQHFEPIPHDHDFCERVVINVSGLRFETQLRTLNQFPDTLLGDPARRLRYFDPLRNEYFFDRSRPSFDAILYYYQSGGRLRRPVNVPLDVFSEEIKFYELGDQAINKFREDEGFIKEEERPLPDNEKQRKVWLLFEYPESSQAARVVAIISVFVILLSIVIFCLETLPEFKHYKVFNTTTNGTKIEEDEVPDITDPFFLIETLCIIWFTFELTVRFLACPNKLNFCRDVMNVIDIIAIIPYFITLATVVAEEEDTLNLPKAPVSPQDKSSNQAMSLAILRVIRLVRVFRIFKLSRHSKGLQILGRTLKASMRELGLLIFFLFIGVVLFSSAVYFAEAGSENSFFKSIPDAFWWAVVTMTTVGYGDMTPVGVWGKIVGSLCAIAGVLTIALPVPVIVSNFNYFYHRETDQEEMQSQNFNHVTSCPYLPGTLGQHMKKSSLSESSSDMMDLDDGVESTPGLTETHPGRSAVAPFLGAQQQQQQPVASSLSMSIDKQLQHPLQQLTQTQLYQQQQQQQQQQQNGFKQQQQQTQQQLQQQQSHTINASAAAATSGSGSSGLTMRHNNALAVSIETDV
T1 sequence (P08510 with tags, fused parts or gaps DEL6-46/M356R/A359R): as the sequence (P08510 with tags, fused parts or gaps DEL6-46) above, with M315R, A318R counted along it
T2 sequence (P08510 with tags, fused parts or gaps DEL6-46/M356R/A359R): as the sequence (P08510 with tags, fused parts or gaps DEL6-46) above, with M315R, A318R counted along it

SMILES: C=C[C@@]1(C)CC[C@H]2C(=CC[C@@H]3[C@]2(C)CCC[C@@]3(C)C(=O)O)C1 [compound 2, isopimaric acid]
- two-electrode voltage clamp in Xenopus oocytes, G(V) shift at 100 μM [1]: −15.9 ± 1.8 mV

SMILES: C[C@@]1(C(=O)O)CCC[C@]2(C)c3cc(Cl)c(Cl)c(Cl)c3CC[C@@H]12 [compound 77, Compound 77]
- EC50 [2]: 37 µM
- two-electrode voltage clamp in Xenopus oocytes, G(V) shift at 100 μM [3]: −21.2 mV

SMILES: C=CCON=C1C[C@H]2[C@](C)(C(=O)O)CCC[C@]2(C)c2ccc(C(C)C)cc21 [compound 19, Compound 19]
- two-electrode voltage clamp in Xenopus oocytes, G(V) shift at 100 μM [1]: −17.8 ± 1.9 mV

SMILES: CON=C1C[C@H]2[C@](C)(C(=O)O)CCC[C@]2(C)c2cc(Br)c(C(C)C)cc21 [compound 33, Compound 33]
- two-electrode voltage clamp in Xenopus oocytes, G(V) shift and pH dependence at [4]: For all three compounds, the induced shifts are smaller on Shaker WT compared to Shaker 3R K channels
- EC50 [2]: 37 µM

SMILES: CC(C)c1ccc2c(c1)CC[C@H]1[C@](C)(C(=O)O)CCC[C@]21C [compound 4, dehydroabietic acid]
- EC50 [5]: 89 µM
- two-electrode voltage clamp in Xenopus oocytes, G(V) shift at 100 μM [3]: −2.3 mV

SMILES: CC(C)C1=CC2=CC[C@@H]3[C@](C)(CCC[C@@]3(C)C(=O)O)[C@H]2CC1 [compound 3, abietic acid]
- two-electrode voltage clamp in Xenopus oocytes, G(V) shift at 100 μM [1]: −11.2 ± 2 mV
